Non-standard residues stand in square brackets, D forms with d. Residues, ends and D or L forms follow the SMILES beside them.
Tests used:
[1] = Comparison of RD2 metabolite profiles across species: cynomolgus liver microsomes; type: in vitro ADME, cynomolgus monkey
Protocol: The preparation of the media was performed as described before in Elfgen et al.[24]. Preparation of simulated gastric and intestinal fluid (SGF & SIF) was done according to the European Pharmacopoeia 7.0. Plasma samples were obtained from human blood of a volunteer donor. Pooled human liver microsomes were purchased from Sekisui XenoTech (Kansas City, USA; H1000, Lot: 0710494 and 1210270; H1500, Lot: 1210079), from Sigma-Aldrich (St. Louis, USA; M0692, Lot: SLBL1433V; M0567, Lot: SLBR2706V and SLBN7300V) and from Gibco, Thermo Fisher Scientific (Waltham, USA; HMMCPL, Lot: PL050; HMMCPM, Lot: PL039). Pooled Sprague Dawley rat liver microsomes were purchased from Sigma-Aldrich (St. Louis, USA; M9066, Lot: SLBN0707V) and from Gibco, Thermo Fisher Scientific (Waltham, USA; RTMCPL, Lot: RT053). Pooled cynomolgus monkey liver microsomes were purchased from Gibco, Thermo Fisher Scientific (Waltham, USA; MKMCPL, Lot: MK062) and from Sekisui XenoTech (Kansas City, USA; P2000, Lot: 1210334). The liver microsomes were diluted in an NADPH regenerating system (NRS).
For the stability tests, 150 µM RD2 or L-RD2 was incubated in SGF, SIF, human plasma and human liver microsomes in triplicate at 37 °C with slight shaking for different time periods. To prevent microbial contaminations in long-term plasma incubations, 0.1% sodium azide was added to the solutions. Microsomal long-term activity was examined by incubating microsomes without peptide for up to 24 h and adding L-RD2 after 8 and 24 h. The ability to degrade L-RD2 served as indicator for their activity. For the comparison of RD2 metabolite profiles across species, 150 µM RD2 was incubated in human, rat and cynomolgus liver microsomes at 37 °C for 2 and 24 h. […]
For the comparison of RD2 metabolite profiles across species (see 2.3), mobile phases were acetonitrile (A) and water (B) each supplemented with 0.1% TFA. […] The amount of the purified HSM-3 was calculated based on a calibration curve of 10 to 100 µM RD2 extracted from human liver microsomes.

CYP2D6 = CYP2D6 (Homo sapiens, UniProt P10635); test: CYP isoform inhibition in human liver microsomes (Cyprotex); type: in vitro ADME
Chain of CYP2D6 (P10635 whole entry, canonical isoform): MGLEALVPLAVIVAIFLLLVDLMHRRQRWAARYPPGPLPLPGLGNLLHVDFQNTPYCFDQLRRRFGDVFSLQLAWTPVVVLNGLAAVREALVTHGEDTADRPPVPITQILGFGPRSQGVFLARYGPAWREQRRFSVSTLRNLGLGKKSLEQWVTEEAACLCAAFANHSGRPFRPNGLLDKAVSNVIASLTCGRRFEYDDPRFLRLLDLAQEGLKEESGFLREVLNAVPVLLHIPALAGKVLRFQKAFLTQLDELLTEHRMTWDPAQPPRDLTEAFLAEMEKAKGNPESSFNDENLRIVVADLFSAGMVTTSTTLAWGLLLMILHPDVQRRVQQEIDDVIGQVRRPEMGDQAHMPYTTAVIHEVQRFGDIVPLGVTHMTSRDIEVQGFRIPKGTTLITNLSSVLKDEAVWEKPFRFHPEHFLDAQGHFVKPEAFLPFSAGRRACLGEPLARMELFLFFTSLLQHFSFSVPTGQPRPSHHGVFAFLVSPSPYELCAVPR
Protocol: The experiments were performed by Cyprotex. […] All assays were performed sevenfold.

MTT cell viability assay = type: cell-based, rat; details: rat, cell viability
Protocol: (§1) Rat PC12 (pheochromocytoma) cells (Leibniz Institute DSMZ, Braunschweig, Germany) were cultivated in Dulbecco’s Modified Eagle Medium (DMEM) supplemented with 10% fetal bovine serum, 5% horse serum and 1% penicillin-streptomycin. 10,000 cells per well were seeded on collagen A-coated 96-well plates (Thermo Fisher Scientific, Waltham, USA) and incubated in a 95% humidified atmosphere with 5% CO2 at 37 °C for 24 h. Samples with untreated RD2 and RD2 or HSM-3 purified from human liver microsomes (see 2.8) in 10 mM sodium phosphate buffer (pH 7.4) were prepared. Buffer without peptides and Triton X-100 (cytotoxic compound) served as controls. The samples were added to the PC12 cells in quadruple and incubated in 95% humidified atmosphere with 5% CO2 at 37 °C for 24 h. Final concentrations were 2 µM untreated RD2, purified RD2, purified HSM-3 and 0.125% Triton X-100. Cell viability was then measured using the Cell Proliferation Kit I (MTT) (Roche, Basel, Switzerland) according to the manufacturer’s instruction. The final absorbance of the formazan product was determined as the absorbance at 570 nm subtracted by the absorbance at 660 nm. All results were normalized to cells that were treated with buffer only. The experiments were performed in triplicate.

[2] = test system: Rat PC12 (pheochromocytoma) cells; test: MTT cell viability assay; type: cell-based; details: rat, 24 h, 2 µM
Protocol: as §1

rat = test system: rat; design: method as in complete study will be published elsewhere; details: oral, up to high doses, ref complete study will be published elsewhere; cited from earlier work
cynomolguses = details: cynomolgus monkey, in vivo, po; cited from earlier work
CYP1A = molecular target: T1, CYP1A (Homo sapiens, UniProt P05177); test: CYP isoform inhibition in human liver microsomes (Cyprotex)
T1 sequence (P05177 2-516): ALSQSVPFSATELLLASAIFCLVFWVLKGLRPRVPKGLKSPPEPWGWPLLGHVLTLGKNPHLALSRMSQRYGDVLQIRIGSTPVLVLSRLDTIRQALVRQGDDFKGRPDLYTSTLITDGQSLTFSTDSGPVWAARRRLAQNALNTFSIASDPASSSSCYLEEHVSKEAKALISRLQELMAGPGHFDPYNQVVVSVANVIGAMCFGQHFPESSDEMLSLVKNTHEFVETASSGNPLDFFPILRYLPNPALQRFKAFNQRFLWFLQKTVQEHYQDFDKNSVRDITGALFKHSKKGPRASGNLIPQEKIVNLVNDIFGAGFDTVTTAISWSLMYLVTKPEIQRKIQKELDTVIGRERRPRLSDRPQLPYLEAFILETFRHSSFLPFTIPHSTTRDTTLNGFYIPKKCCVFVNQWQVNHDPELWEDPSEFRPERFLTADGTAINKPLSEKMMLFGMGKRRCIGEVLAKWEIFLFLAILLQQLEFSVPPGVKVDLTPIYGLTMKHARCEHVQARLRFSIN
Protocol: The experiments were performed by Cyprotex. […] The reactions were terminated by methanol and the generated metabolites were monitored by LC-MS/MS or fluorescence. […] All assays were performed sevenfold. […] For all other substrates, the termination plates were centrifuged at 2,500 rpm and 4 °C for 30 min and aliquots of the supernatants were combined and transferred to fresh 96-well plates. Formic acid in deionized water (final concentration 0.1%) containing internal standard was added to the supernatants prior to cassette analysis by LC-MS/MS. A decrease in the formation of the metabolite compared to the vehicle control was used to calculate the IC50 values.

## CC(C)C[C@@H](NC(=O)[C@H](NC(=O)[C@H]1CCCN1)[C@H](C)O)C(=O)N[C@H](Cc1c[nH]cn1)C(=O)N[C@@H](C(=O)N[C@H](Cc1c[nH]cn1)C(=O)N[C@H](CC(N)=O)C(=O)N[C@H](CCCNC(=N)N)C(=O)N[C@H](CCCNC(=N)N)C(=O)N[C@H](CCCNC(=N)N)C(=O)N[C@H](CCCNC(=N)N)C(=O)N[C@H](CCCNC(=N)N)C(N)=O)[C@H](C)O [RD2, ptlhthnrrrrr] (H-[dP][dT][dL][dH][dT][dH][dN][dR][dR][dR][dR][dR]-NH2)
[1]; cynomolgus liver microsomes, 150 µM, 2 h
  metabolization of RD2 after 2 h: unmetabolized
[1]; monkey, pooled cynomolgus monkey liver microsomes, cynomolgus samples, 24 h, read-out: decrease of the intensity of the RD2 peak
  metabolised at 24 h, 150 µM: 9 ± 2%
CYP2D6; concentration range 0 to 25 µM
  inhibition of CYP2D6: did not inhibit
CYP2D6; human, human liver microsomes, 0.25 µM RD2
  inhibition at 0.25 µM: 1.33%
CYP2D6; human, human liver microsomes, 1 µM RD2
  inhibition at 1 µM: 0.671%
CYP2D6; human, human liver microsomes, 2.5 µM RD2
  inhibition at 2.5 µM: 3.53%
CYP2D6; human, human liver microsomes, 10 µM RD2
  inhibition at 10 µM: -5.9%
CYP2D6; human, human liver microsomes, 25 µM RD2
  inhibition at 25 µM: -9.57%
MTT cell viability assay
  viability at 24 h, 2 µM: 99 ± 4%
[2]
  cell viability: 93 ± 6%
rat
  toxic effects of orally administered RD2: does not cause toxic effects up to high doses
cynomolguses
  toxic effects of orally administered RD2: does not cause toxic effects up to high doses
CYP1A; concentration range 0 to 25 µM
  inhibition of CYP1A: did not inhibit
CYP1A; human, human liver microsomes
  inhibition at 0.25 µM: 6.18%
  inhibition at 1 µM: 9.42%
  inhibition at 2.5 µM: 1.34%
  inhibition at 10 µM: -0.842%
  inhibition at 25 µM: -0.198%
